This passage reports IC50 and Ki results from ChEMBL document CHEMBL1125390, “Design and synthesis of novel 6,7-imidazotetrahydroquinoline inhibitors of thymidylate synthase using iterative protein crystal structure analysis” (J Med Chem, 1992).

In test [1] the test system is GC3M(-). Kind of test: Compound was tested for the inhibition of thymidine kinase deficient human adenocarcinoma GC3M(-) cell growth.
For test [2], the system named is L1210. Kind of test: Compound was tested for the inhibition of mouse L1210 leukemia cell growth.
The target of test [3] is Thymidylate synthase (Escherichia coli, UniProt C3SWJ7).
Description: Inhibition of Escherichia coli Thymidylate synthase (TS)
Test [4] has as its system CCRF-CEM. Kind of test: Compound was tested for the inhibition of human CCRF-CEM leukemia cell growth.
Test [5] has as its system GC3M(-). As to the kind of experiment: Compound was evaluated for cellular growth inhibition in thymidine kinase deficient human adenocarcinoma GC3M(-) cell line.

Each structure is given as a SMILES string. A value given as a limit tells only on which side of the number the result lay.

Chain of Thymidylate synthase (C3SWJ7 whole entry): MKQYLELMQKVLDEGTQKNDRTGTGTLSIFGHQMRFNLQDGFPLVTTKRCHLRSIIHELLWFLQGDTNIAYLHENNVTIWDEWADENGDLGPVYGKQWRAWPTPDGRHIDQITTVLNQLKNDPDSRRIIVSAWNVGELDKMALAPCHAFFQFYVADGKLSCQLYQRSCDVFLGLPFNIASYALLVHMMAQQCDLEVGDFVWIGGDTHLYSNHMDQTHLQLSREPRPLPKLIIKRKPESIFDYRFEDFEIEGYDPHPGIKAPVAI

For `COc1ccc(S(=O)(=O)c2ccc(CN3CCCc4cc5c(cc43)nc(N)n5C)cc2)cc1`, the IC50 (usually the midpoint of a concentration-inhibition curve) in test [1] turned out to be 3 µM; in test [2], 0.5 µM; in test [4] it was 0.9 µM. The Ki (in general, a measure of affinity in units of concentration, obtained from inhibition or displacement) in test [3] was 0.5 µM.
For `Nc1nc2cc3c(cc2[nH]1)N(Cc1ccc(S(=O)(=O)c2ccccc2)cc1)CCC3`, in test [1], the IC50 is > 5 µM.
Take `COc1ccc(S(=O)(=O)c2ccc(CN3CCCc4cc5nc(C)[nH]c5cc43)cc2)cc1`: the IC50 in test [1] was 4.1 µM; in test [2] it was 2.8 µM; in test [4], 8 µM. The Ki in test [3] is 1.3 µM.
Turning to `COc1ccc(S(=O)(=O)c2ccc(CN3CCCc4cc5[nH]c(N)nc5cc43)cc2)cc1`, the values for the IC50 in test [1], in test [2] and in test [4] were 9 µM, 2.6 µM and 5.1 µM, respectively.
On to `CNc1nc2cc3c(cc2[nH]1)N(Cc1ccc(S(=O)(=O)c2ccccc2)cc1)CCC3`, for which the 50% inhibitory concentration (IC50) in test [1] is > 5 µM; in test [2] it was 3 µM; in test [4], 3.3 µM. In test [3], this compound displayed an inhibitory constant (Ki) of 8.5 µM.
Take `CSc1nc2cc3c(cc2[nH]1)N(Cc1ccc(S(=O)(=O)c2ccccc2)cc1)CCC3`: the IC50 in test [1], in test [2] and in test [4] was > 10 µM each time. In addition, the Ki in test [3] was > 3 µM.
Consider `Nc1nc2cc3c(cc2[nH]1)N(Cc1ccc(S(=O)(=O)N2CCOCC2)cc1)CCC3`, for which the IC50 in test [1] stood at 8.6 µM; in test [2], 4 µM; in test [4] it was 4 µM.
Consider `Nc1nc2cc3c(cc2[nH]1)N(Cc1ccc(C(=O)NC(CCC(=O)O)C(=O)O)cc1)CCC3` (configuration not stated), for which the IC50 in test [2] is 20 µM; in test [5], > 50 µM; in test [4] it was 40 µM.
With `COc1ccc(S(=O)(=O)c2ccc(CN3CCCc4cc5c(cc43)nc(C)n5C)cc2)cc1`, the IC50 is > 5 µM in test [1], 1.05 µM in test [2] and 1.8 µM in test [4]. Moreover, the Ki in test [3] amounted to 5.2 µM.
As for `Nc1nc2cc3c(cc2[nH]1)N(Cc1ccc(S(=O)(=O)N2CCNCC2)cc1)CCC3`, the IC50 in test [1] is > 50 µM; in test [2] it was 2 µM.
On to `Nc1nc2cc3c(cc2[nH]1)N(Cc1ccc(S(=O)(=O)c2ccc(O)cc2)cc1)CCC3`, for which the values for the IC50 in test [2], in test [5] and in test [4] were 12 µM, > 50 µM and 22 µM, respectively.
Turning to `O=S(=O)(c1ccc(CN2CCCc3cc4[nH]cnc4cc32)cc1)N1CCNCC1`, half-maximal inhibition in test [1] (IC50) required 43 µM.
As for `Nc1nc2cc3c(cc2[nH]1)CCCC3Sc1ccc(S(=O)(=O)c2ccccc2)cc1` (configuration not stated), the IC50 in test [1] was > 10 µM; in test [2] it was 7.5 µM; in test [4] it was > 10 µM.
Take `Nc1nc2cc3c(cc2[nH]1)N(Cc1ccc2cc(CO)ccc2c1)CCC3`: the IC50 in test [1] was > 5 µM; in test [2], 3.1 µM; in test [4], > 5 µM.
